{"source": "patent US7462601B2", "about": "“Ameliorant for chemical treatment of cancer” (priority 2002, dated 2008)", "assay_type_in_all_cases": "in vivo, BDF mice", "key": {"[1]": {"system": "P388 leukemia cells", "test": "Enhancing carcinostatic action in cancer chemotherapy (3): ADM and TMG, survival of P388 leukemia mice", "conditions": "ADM 16 mg/kg i.p. 1st, 3rd, 5th, 7th days, TMG 0, 7 days after administration", "protocol": "P388 leukemia cells (6×10^6 cells) were administered intraperitoneally to female BDF mice of 8-9 weeks old (8 heads per group, body weight of 20-22 g). On the following day (1st day), 16 mg/kg of adriamycin (ADM) and a prescribed amount TMG were intraperitoneally administered to the mice. Thereafter, ADM (16 mg/kg) was administered on the 3rd, 5th, and 7th days and TMG (prescribed amount as mentioned above) was simultaneously administered every day on the 2nd-7th days. The survival ratio of these mice was measured 7 days after the administration of ADM and TMG."}, "[2]": {"test": "Repressing side effects (4): decrease of body weight under ADM in P388 leukemia mice", "conditions": "Control Group: ADM 16 mg/kg once daily for 9 days", "protocol": "P388 leukemia cells (6×10^6 cells) were administered intraperitoneally to female BDF mice of 8-9 weeks old (8 heads per group, body weight of 20-22 g). On the following day, ADM was administered in a dosage of 16 mg/kg once daily for 9 days. The mice formed Control Group. A group of mice to which TMG was administered simultaneously with ADM in a dosage of 0.1 mg/kg once daily for 9 days formed Test Group.\nThe time-course changes of the body weight of the Control Group and Test Group were measured."}, "[3]": {"test": "Repressing side effects (1): survival after lethal dose of CDDP", "protocol": "CDDP was intraperitoneally administered in a dosage of 16 mg/kg, a lethal dose, to 10 BDF mice of 8 weeks old (22-25 g). These mice formed Control Group. A group of mice to which CDDP was administered simultaneously with TMG in a dosage of 0.01 mg/kg formed Test Group 1 and a group of mice to which CDDP was administered simultaneously with TMG in a dosage of 1.0 mg/kg formed Test Group 2. The time course changes of survival ratio of the Control Group and Test Groups were measured."}, "[4]": {"system": "P388 leukemia cells", "test": "Enhancing carcinostatic action in cancer chemotherapy (1): CDDP and TMG, survival of P388 leukemia mice", "conditions": "5th, TMG 0, 60 days; for Number surviving: 8 per group", "protocol": "P388 leukemia cells (6×10^6 cells) were administered intraperitoneally to female BDF mice of 8-9 weeks old (8 heads per group, body weight of 20-22 g). On the following day, a solution having prescribed amounts of cisplatin (CDDP) and TMG in 0.2 ml of physiological saline was intraperitoneally administered to the mice. The survival ratio of these mice was measured 60 days after the administration of CDDP and TMG."}, "[5]": {"test": "Repressing side effects (2): number of leukocytes in blood under CDDP", "conditions": "Control Group: CDDP 2 mg/kg i.p. once daily for 10 days", "protocol": "CDDP was intraperitoneally administered in a dosage of 2 mg/kg to 5 BDF mice of 8 weeks old once daily for 10 days. These mice formed Control Group. A group of mice to which CDDP was administered simultaneously with TMG in a dosage of 1 mg/kg once daily for 10 days formed Test Group. The time course changes of the numbers of leukocytes in blood of the Control Group and Test Group were measured."}, "[6]": {"system": "P388 leukemia cells", "test": "Enhancing carcinostatic action in cancer chemotherapy (2): CPA and TMG, survival of P388 leukemia mice", "conditions": "CPA alone administered, 360 mg/kg i.p. 1st, 3rd, 5th, 7th days, 60 days", "protocol": "P388 leukemia cells (6×10^6 cells) were administered intraperitoneally to female BDF mice of 8-9 weeks old (8 heads per group, body weight of 20-22 g). On the following day (1st day), cyclophosphamide (CPA) and TMG were administered at respective dose of 360 mg/kg and 0.01 mg/kg were intraperitoneally administered to the mice. Thereafter, CPA (360 mg/kg) was administered on the 3rd, 5th, and 7th days and TMG (0.01 mg/kg) was administered every day from the 2nd through 9th days. The survival ratio of these mice was measured 60 days after the administration of CPA and TMG."}, "[7]": {"conditions": "CDDP 2 mg/kg i.p. 1st, 3rd, 7th days"}, "[8]": {"conditions": "CDDP 4 mg/kg i.p. 1st, 9th days"}}}
{"compound": "COc1cccc2c1C(=O)c1c(O)c3c(c(O)c1C2=O)C[C@@](O)(C(=O)CO)C[C@@H]3O[C@H]1C[C@H](N)[C@H](O)[C@H](C)O1", "note": "[ADM, adriamycin]", "values": [{"measurement": "Survival ratio", "setting": "[1]", "value": 0, "unit": "%"}, {"measurement": "Number surviving", "setting": "[1]; 8 per group", "value": 0, "unit": "Heads"}, {"measurement": "Decrease of body weight", "setting": "[2]; P388 mice, day 1 after start of the test", "value": 1.5, "unit": "g"}, {"measurement": "Decrease of body weight", "setting": "[2]; day 3", "value": 3.3, "unit": "g"}, {"measurement": "Decrease of body weight", "setting": "[2]; day 5", "value": 5.7, "unit": "g"}, {"measurement": "Decrease of body weight", "setting": "[2]; day 7", "value": 6.5, "unit": "g"}]}
{"compound": "[NH2][Pt]([NH2])([Cl])[Cl]", "note": "[CDDP, cisplatin]", "values": [{"measurement": "Survival ratio", "setting": "[3]; Control Group: CDDP 16 mg/kg i.p. (lethal dose) alone, day 0 after administration of CDDP", "value": 100, "unit": "%"}, {"measurement": "Survival ratio", "setting": "[3]; Control Group: CDDP 16 mg/kg i.p. alone, day 5", "value": 80, "unit": "%"}, {"measurement": "Survival ratio", "setting": "[3]; Control Group: CDDP 16 mg/kg i.p. alone, day 8", "value": 30, "unit": "%"}, {"measurement": "Survival ratio", "setting": "[3]; Control Group: CDDP 16 mg/kg i.p. alone, day 10", "value": 0, "unit": "%"}, {"measurement": "Survival ratio", "setting": "[4]; [7]", "value": 75, "unit": "%"}, {"measurement": "Number surviving", "setting": "[4]; [7]", "value": 6, "unit": "Heads"}, {"measurement": "Survival ratio", "setting": "[4]; [8]", "value": 75, "unit": "%"}, {"measurement": "Number surviving", "setting": "[4]; [8]", "value": 6, "unit": "Heads"}, {"measurement": "Number of leukocytes", "setting": "[5]; day 0 after start of test", "value": 20000, "unit": "µL⁻¹"}, {"measurement": "Number of leukocytes", "setting": "[5]; day 10", "value": 10000, "unit": "µL⁻¹"}, {"measurement": "Number of leukocytes", "setting": "[5]; day 20", "value": 6000, "unit": "µL⁻¹"}, {"measurement": "Number of leukocytes", "setting": "[5]; day 25", "value": 11000, "unit": "µL⁻¹"}]}
{"compound": "O=P1(N(CCCl)CCCl)NCCCO1", "note": "(centres unmarked) [CPA, cyclophosphamide]", "values": [{"measurement": "Survival ratio", "setting": "[6]", "value": 50, "unit": "%"}, {"measurement": "Number surviving", "setting": "[6]; 8 per group", "value": 4, "unit": "Heads"}]}
